# Results taken from ChEMBL document CHEMBL5537158, “Polymyxins with Potent Antibacterial Activity against Colistin-Resistant Pathogens: Fine-Tuning Hydrophobicity with Unnatural Amino Acids” (J Med Chem, 2024).
# Positions of bridges follow the written chain, without caps; N, C: chain ends. Non-standard residues stand in square brackets, D forms with d. Residues, ends and D or L forms follow the SMILES beside them. *: point of attachment. dPhe(3,4,5-F3) = N[C@H](Cc1cc(F)c(F)c(F)c1)C(=O)O; dPhe(4-CF3) = N[C@H](Cc1ccc(C(F)(F)F)cc1)C(=O)O; Phe(3-F) = N[C@@H](Cc1cccc(F)c1)C(=O)O; Phe(4-F) = N[C@@H](Cc1ccc(F)cc1)C(=O)O; dPhe(4-F) = N[C@H](Cc1ccc(F)cc1)C(=O)O; Phe(2-F) = N[C@@H](Cc1ccccc1F)C(=O)O; d(hhPhe) = N[C@H](CCCc1ccccc1)C(=O)O; hhPhe = N[C@@H](CCCc1ccccc1)C(=O)O; d(hLeu) = CC(C)CC[C@@H](N)C(=O)O; dAoc(2) = CCCCCC[C@@H](N)C(=O)O; Octanoyl = CCCCCCCC(=O)*; Dab = NCC[C@H](N)C(=O)O
# Key:
# Escherichia coli [1] = assay: Antibacterial activity against Escherichia coli ATCC 25922 assessed as bacterial growth inhibition incubated for 20 hrs by broth microdilution method; format: functional
# Pseudomonas aeruginosa [2] = assay: Antimicrobial activity against colistin resistant Pseudomonas aeruginosa 7197/19 assessed as bacterial growth inhibition incubated for 20 hrs by broth microdilution method; format: functional
# Acinetobacter baumannii [3] = assay: Antimicrobial activity against Acinetobacter baumannii ATCC 19606 assessed as bacterial growth inhibition incubated for 20 hrs by broth microdilution method; format: functional
# Klebsiella pneumoniae = assay: Antimicrobial activity against Klebsiella pneumoniae ATCC 13883 assessed as bacterial growth inhibition incubated for 20 hrs by broth microdilution method; format: functional
# Pseudomonas aeruginosa [4] = assay: Antimicrobial activity against Pseudomonas aeruginosa PAO1 assessed as bacterial growth inhibition incubated for 20 hrs by broth microdilution method; format: functional
# Escherichia coli [5] = assay: Antimicrobial activity against […] Escherichia coli harboring mcr-1 assessed as bacterial growth inhibition incubated for 20 hrs by broth microdilution method; format: functional
# [6] = Hemolytic activity in human RBC at 400 ug/ml after 1 hr; format: toxicity, cell-based, Erythrocyte; conditions: red blood cells (erythrocytes), at 400 µg/mL, read-out: Activity
# Acinetobacter baumannii [7] = assay: Antimicrobial activity against colistin resistant Acinetobacter baumannii ATCC 3658/17 assessed as bacterial growth inhibition incubated for 20 hrs by broth microdilution method; format: functional
SMILES,MIC (Escherichia coli [1]),MIC (Pseudomonas aeruginosa [2]),MIC (Acinetobacter baumannii [3]),MIC (Klebsiella pneumoniae),MIC (Pseudomonas aeruginosa [4]),MIC (Escherichia coli [5]),"hemolysis at 1 h, 400 ug/ml [6]",MIC (Acinetobacter baumannii [7])
"CCCCCCCC(=O)N[C@@H](CCN)C(=O)N[C@H](C(=O)N[C@@H](CCN)C(=O)N[C@H]1CCNC(=O)[C@H]([C@@H](C)O)NC(=O)[C@H](CCN)NC(=O)[C@H](CCN)NC(=O)[C@H](CC(C)C)NC(=O)[C@@H](Cc2cc(F)c(F)c(F)c2)NC(=O)[C@H](CCN)NC1=O)[C@@H](C)O (Octanoyl-[Dab]T[Dab][Dab][Dab][dPhe(3,4,5-F3)]L[Dab][Dab]T; lactam 4-C)",< 0.125 µg/mL,0.25 µg/mL,< 0.125 µg/mL,< 0.125 µg/mL,< 0.125 µg/mL,1 µg/mL,,
CC(=O)N[C@H](Cc1ccc(C(F)(F)F)cc1)C(=O)N[C@@H](CCN)C(=O)N[C@H](C(=O)N[C@@H](CCN)C(=O)N[C@H]1CCNC(=O)[C@H]([C@@H](C)O)NC(=O)[C@H](CCN)NC(=O)[C@H](CCN)NC(=O)[C@H](CC(C)C)NC(=O)[C@@H](Cc2ccccc2)NC(=O)[C@@H](CCN)NC1=O)[C@H](C)O,,32 µg/mL,0.5 µg/mL,8 µg/mL,0.25 µg/mL,4 µg/mL,< 10%,
CCCCCCCC(=O)N[C@@H](CCN)C(=O)N[C@H](C(=O)N[C@@H](CCN)C(=O)N[C@H]1CCNC(=O)[C@H]([C@@H](C)O)NC(=O)[C@H](CCN)NC(=O)[C@H](CCN)NC(=O)[C@H](CC(C)C)NC(=O)[C@@H](Cc2ccc(C(F)(F)F)cc2)NC(=O)[C@H](CCN)NC1=O)[C@@H](C)O (Octanoyl-[Dab]T[Dab][Dab][Dab][dPhe(4-CF3)]L[Dab][Dab]T; lactam 4-C),0.25 µg/mL,0.25 µg/mL,0.25 µg/mL,,,1 µg/mL,,0.5 µg/mL
CC(=O)N[C@H](Cc1ccc(Cl)cc1)C(=O)N[C@@H](CCN)C(=O)N[C@H](C(=O)N[C@@H](CCN)C(=O)N[C@H]1CCNC(=O)[C@H]([C@@H](C)O)NC(=O)[C@H](CCN)NC(=O)[C@H](CCN)NC(=O)[C@H](CC(C)C)NC(=O)[C@@H](Cc2ccccc2)NC(=O)[C@@H](CCN)NC1=O)[C@H](C)O,,,0.5 µg/mL,16 µg/mL,,,< 10%,
CCCCCCCC(=O)N[C@@H](CCN)C(=O)N[C@H](C(=O)N[C@@H](CCN)C(=O)N[C@H]1CCNC(=O)[C@H]([C@@H](C)O)NC(=O)[C@H](CCN)NC(=O)[C@H](CCN)NC(=O)[C@H](Cc2ccccc2)NC(=O)[C@@H](CCCc2ccccc2)NC(=O)[C@H](CCN)NC1=O)[C@@H](C)O (Octanoyl-[Dab]T[Dab][Dab][Dab][d(hhPhe)]F[Dab][Dab]T; lactam 4-C),0.25 µg/mL,0.5 µg/mL,,,,2 µg/mL,,1 µg/mL
CCCCCCCC(=O)N[C@@H](CCN)C(=O)N[C@H](C(=O)N[C@@H](CCN)C(=O)N[C@H]1CCNC(=O)[C@H]([C@@H](C)O)NC(=O)[C@H](CCN)NC(=O)[C@H](CCN)NC(=O)[C@H](Cc2ccccc2F)NC(=O)[C@@H](CC(C)C)NC(=O)[C@H](CCN)NC1=O)[C@@H](C)O (Octanoyl-[Dab]T[Dab][Dab][Dab][dL][Phe(2-F)][Dab][Dab]T; lactam 4-C),0.06 µg/mL,,0.125 µg/mL,4 µg/mL,,2 µg/mL,,
CCCCCCCC(=O)N[C@@H](CCN)C(=O)N[C@H](C(=O)N[C@@H](CCN)C(=O)N[C@H]1CCNC(=O)[C@H]([C@@H](C)O)NC(=O)[C@H](CCN)NC(=O)[C@H](CCN)NC(=O)[C@H](Cc2ccccc2)NC(=O)[C@@H](CCCCCC)NC(=O)[C@H](CCN)NC1=O)[C@@H](C)O (Octanoyl-[Dab]T[Dab][Dab][Dab][dAoc(2)]F[Dab][Dab]T; lactam 4-C),0.25 µg/mL,0.25 µg/mL,0.25 µg/mL,1 µg/mL,,,,0.5 µg/mL
CCCCCCCC(=O)N[C@@H](CCN)C(=O)N[C@H](C(=O)N[C@@H](CCN)C(=O)N[C@H]1CCNC(=O)[C@H]([C@@H](C)O)NC(=O)[C@H](CCN)NC(=O)[C@H](CCN)NC(=O)[C@H](CCCc2ccccc2)NC(=O)[C@@H](CC(C)C)NC(=O)[C@H](CCN)NC1=O)[C@@H](C)O (Octanoyl-[Dab]T[Dab][Dab][Dab][dL][hhPhe][Dab][Dab]T; lactam 4-C),0.5 µg/mL,0.5 µg/mL,< 0.125 µg/mL,,0.5 µg/mL,1 µg/mL,,0.5 µg/mL
CCCCCCCC(=O)N[C@@H](CCN)C(=O)N[C@H](C(=O)N[C@@H](CCN)C(=O)N[C@H]1CCNC(=O)[C@H]([C@@H](C)O)NC(=O)[C@H](CCN)NC(=O)[C@H](CCN)NC(=O)[C@H](Cc2ccccc2)NC(=O)[C@@H](CCC(C)C)NC(=O)[C@H](CCN)NC1=O)[C@@H](C)O (Octanoyl-[Dab]T[Dab][Dab][Dab][d(hLeu)]F[Dab][Dab]T; lactam 4-C),< 0.125 µg/mL,0.23 µg/mL,< 0.125 µg/mL,0.5 µg/mL,,,,1 µg/mL
CCCCCCCC(=O)N[C@@H](CCN)C(=O)N[C@H](C(=O)N[C@@H](CCN)C(=O)N[C@H]1CCNC(=O)[C@H]([C@@H](C)O)NC(=O)[C@H](CCN)NC(=O)[C@H](CCN)NC(=O)[C@H](CC(C)C)NC(=O)[C@@H](Cc2ccc(F)cc2)NC(=O)[C@H](CCN)NC1=O)[C@@H](C)O (Octanoyl-[Dab]T[Dab][Dab][Dab][dPhe(4-F)]L[Dab][Dab]T; lactam 4-C),0.03 µg/mL,,0.06 µg/mL,,,2 µg/mL,,0.25 µg/mL
CC(=O)N[C@H](Cc1ccc(Br)cc1)C(=O)N[C@@H](CCN)C(=O)N[C@H](C(=O)N[C@@H](CCN)C(=O)N[C@H]1CCNC(=O)[C@H]([C@@H](C)O)NC(=O)[C@H](CCN)NC(=O)[C@H](CCN)NC(=O)[C@H](CC(C)C)NC(=O)[C@@H](Cc2ccccc2)NC(=O)[C@@H](CCN)NC1=O)[C@H](C)O,0.06 µg/mL,16 µg/mL,,8 µg/mL,0.125 µg/mL,,< 10%,
CCCCCCCC(=O)N[C@@H](CCN)C(=O)N[C@H](C(=O)N[C@@H](CCN)C(=O)N[C@H]1CCNC(=O)[C@H]([C@@H](C)O)NC(=O)[C@H](CCN)NC(=O)[C@H](CCN)NC(=O)[C@H](Cc2ccc(F)cc2)NC(=O)[C@@H](CC(C)C)NC(=O)[C@H](CCN)NC1=O)[C@@H](C)O (Octanoyl-[Dab]T[Dab][Dab][Dab][dL][Phe(4-F)][Dab][Dab]T; lactam 4-C),,32 µg/mL,0.25 µg/mL,,0.125 µg/mL,2 µg/mL,,16 µg/mL
CCCCCCCC(=O)N[C@@H](CCN)C(=O)N[C@H](C(=O)N[C@@H](CCN)C(=O)N[C@H]1CCNC(=O)[C@H]([C@@H](C)O)NC(=O)[C@H](CCN)NC(=O)[C@H](CCN)NC(=O)[C@H](Cc2cccc(F)c2)NC(=O)[C@@H](CC(C)C)NC(=O)[C@H](CCN)NC1=O)[C@@H](C)O (Octanoyl-[Dab]T[Dab][Dab][Dab][dL][Phe(3-F)][Dab][Dab]T; lactam 4-C),0.25 µg/mL,1 µg/mL,0.25 µg/mL,,,4 µg/mL,,
CC(=O)N[C@H](Cc1c(F)c(F)c(F)c(F)c1F)C(=O)N[C@@H](CCN)C(=O)N[C@H](C(=O)N[C@@H](CCN)C(=O)N[C@H]1CCNC(=O)[C@H]([C@@H](C)O)NC(=O)[C@H](CCN)NC(=O)[C@H](CCN)NC(=O)[C@H](CC(C)C)NC(=O)[C@@H](Cc2ccccc2)NC(=O)[C@@H](CCN)NC1=O)[C@H](C)O,< 0.125 µg/mL,,,8 µg/mL,0.25 µg/mL,8 µg/mL,< 10%,
